In patent US20110135671A1, “PURINE DERIVATIVES FOR USE IN THE TREATMENT OF ALLERGIC, INFLAMMATORY AND INFECTIOUS DISEASES” (GLAXOSMITHKLINE LLC, priority 2008, published 2011):
Where a name gives a salt, the structure may show the parent alone.

System: Interferon-α
Assay: Induction of Interferon-α using cryopreserved human PBMCs
Assay type: cell-based
Details: PBMC, 24 h, normalised to 1 uM resiquimod, read-out: mean pEC50 for induction of Interferon-α (converted)
Experimental: Assay for the Induction of Interferon-α using Cryopreserved Human Peripheral Blood Mononuclear Cells (PBMCs)
Compounds were dissolved in DMSO. Serial 2-fold dilutions with DMSO were prepared and 0.25 μl dispensed into 384-well clear Greiner polypropylene plates.
Blood samples of up to 200 ml were obtained from healthy human donors. Whole blood in 25 ml volumes was overlaid onto 15 ml Ficoll gradients in Leucosep tubes, and centrifuged at 1000 g for 20 min. Cells in the band at the plasma/histopaque interface were carefully removed and washed twice with PBS (centrifuged at 400 g for 5 min to harvest). The final pellet was resuspended in freezing medium (90% Heat-inactivated serum, 10% DMSO) to a cell concentration of 4×10^7 cells/ml. The resuspended cells were then cryopreserved (frozen) using a rate controlled freezer, and stored at −140° C. for up to 4 months.
Incubation and Assay for Interferon-α
Immediately prior to assay, vials of cryopreserved (frozen) PBMCs were thawed rapidly in a water bath at 37° C. A 1:10 dilution of the cells in trypan blue was prepared and counted. The PBMCs were then diluted in growth media [RPMI 1640 containing 10% fetal calf serum (invitrogen), Penicillin+Streptavidin (Gibco cat. # 25030-024, 1:50), L-Glutamine 2 mM, and 1000 units/ml recombinant human IFN-gamma (Preprotech catalogue #300-02)] to a density of 1×10^6 cells/ml, and 50 ul/well dispensed to 384-well clear Greiner polypropylene plates containing 0.25 μl DMSO or test compound in 0.25 μl DMSO. […] Plates were incubated for 24 h at 37° C. in 5% CO2.
A multi-isoform immunoassay was used to quantify IFN-α in PBMC supernatants. Rabbit polyclonal antibody against human IFN-α (catalogue number 31101, Stratech Scientific) was diluted 1:10000 in assay buffer (RPMI 1640 containing 10% fetal calf serum, Invitrogen) and 20 μl was added to each well of an MSD (Meso-Scale Discovery) single small-spot 384-well GAR (goat anti-rabbit antibody coated) plate. The plate was incubated for 1 h at room temperature with vigorous shaking. Following three washes with PBS, 20 μl of cell supernatant were added to each well of the plate. The plate was then incubated for 1 h at room temperature with vigorous shaking. A pair of monoclonal antibodies to IFN-α (catalogue numbers 21100 and 21112, Stratech Scientific) were labelled with sulfo-TAG (MSD), diluted 1:1000 in assay buffer and 20 μl added to each well of the plate. The plate was further incubated for 1 h at room temperature with vigorous shaking. Following three washes with PBS, 30 μl of ×2 T buffer (MSD) was added to each well and the plate was read on an MSD Sector 6000 plate reader.
Data were normalised to internal plate controls of 1 uM resiquimod (n=16) and DMSO (n=16). pEC50 values were derived by 4-parameter curve fit with IRLS in ActivityBase, from 11-point, two-fold serial dilution of test compounds.

For CCCCNc1nc(N)c2[nH]c(=O)n(CCN3CCN(C4CCCCC4)CC3)c2n1 [Example 5, 6-Amino-2-(butylamino)-9-[2-(4-cyclohexyl-1-piperazinyl)ethyl]-7,9-dihydro-8H-purin-8-one], the EC50 was less than 3.16 µM.

In the case of CCCCOc1nc(N)c2[nH]c(=O)n(CCN3CCN(C4CCCCC4)CC3)c2n1 [Example 2, 6-Amino-2-(butyloxy)-9-[2-(4-cyclohexyl-1-piperazinyl)ethyl]-7,9-dihydro-8H-purin-8-one dihydrochloride salt], the EC50 is reported as less than 3.16 µM.

With CCCCNc1nc(N)c2[nH]c(=O)n(CCCCN3CCN(C4CCCCC4)CC3)c2n1 [Example 44, 6-Amino-2-(butylamino)-9-[4-(4-cyclohexyl-1-piperazinyl)butyl]-7,9-dihydro-8H-purin-8-one] the EC50 was less than 3.16 µM.

CCCCOc1nc(N)c2[nH]c(=O)n(CCCCCN3CCN(C(C)(C)C)CC3)c2n1 [Example 61, 6-Amino-2-(butyloxy)-9-{5-[4-(1,1-dimethylethyl)-1-piperazinyl]pentyl}-7,9-dihydro-8H-purin-8-one] was tested, and the EC50 was less than 3.16 µM.

Work on CCCCOc1nc(N)c2[nH]c(=O)n(CCCCCN3CCN(CCCC)CC3)c2n1 [Example 59, 6-Amino-2-(butyloxy)-9-[5-(4-butyl-1-piperazinyl)pentyl]-7,9-dihydro-8H-purin-8-one] yielded an EC50 of less than 3.16 µM.

With CCC[C@H](C)Oc1nc(N)c2[nH]c(=O)n(CCCCCN3CCNCC3)c2n1 [Example 49, 6-Amino-2-{[(1S)-1-methylbutyl]oxy}-9-[5-(1-piperazinyl)pentyl]-7,9-dihydro-8H-purin-8-one] the EC50 was less than 3.16 µM.

For CCCCOc1nc(N)c2[nH]c(=O)n(CCCCN3CCN(C4CCCC4)CC3)c2n1 [Example 34, 6-Amino-2-(butyloxy)-9-[4-(4-cyclopentyl-1-piperazinyl)butyl]-7,9-dihydro-8H-purin-8-one], the EC50 was less than 3.16 µM.

For CCCCOc1nc(N)c2[nH]c(=O)n(CCCCCN3CCN(CC4CC4)CC3)c2n1 [Example 65, 6-Amino-2-(butyloxy)-9-{5-[4-(cyclopropylmethyl)-1-piperazinyl]pentyl}-7,9-dihydro-8H-purin-8-one], the EC50 was less than 3.16 µM.

In the case of CCCCOc1nc(N)c2[nH]c(=O)n(CCCCCN3CCNCC3)c2n1 [Example 45, 6-Amino-2-(butyloxy)-9-[5-(1-piperazinyl)pentyl]-7,9-dihydro-8H-purin-8-one], the EC50 is reported as less than 3.16 µM.

CCCCOc1nc(N)c2[nH]c(=O)n(CCCCN3CCN(CC(C)C)CC3)c2n1 [Example 31, 6-Amino-2-(butyloxy)-9-{4-[4-(2-methylpropyl)-1-piperazinyl]butyl}-7,9-dihydro-8H-purin-8-one] gave an EC50 of less than 3.16 µM.

Work on CC[C@H](C)Oc1nc(N)c2[nH]c(=O)n(CCCCN3CCN(C(C)C)CC3)c2n1 [Example 68, 6-Amino-9-{4-[4-(1-methylethyl)-1-piperazinyl]butyl}-2-{[(1S)-1-methylpropyl]oxy}-7,9-dihydro-8H-purin-8-one] yielded an EC50 of less than 3.16 µM.

CCCCNc1nc(N)c2[nH]c(=O)n(CCCCN3CCN(CC4CC4)CC3)c2n1 [Example 42, 6-Amino-2-(butylamino)-9-{4-[4-(cyclopropylmethyl)-1-piperazinyl]butyl}-7,9-dihydro-8H-purin-8-one] showed an EC50 of less than 3.16 µM.

For CCCCOc1nc(N)c2[nH]c(=O)n(CCCCN3CCNCC3)c2n1 [Example 67, 6-Amino-2-(butyloxy)-9-[4-(1-piperazinyl)butyl]-7,9-dihydro-8H-purin-8-one], the EC50 was less than 3.16 µM.

CCC[C@H](C)Oc1nc(N)c2[nH]c(=O)n(CCCCCN3CCN(C)CC3)c2n1 [Example 50, 6-Amino-2-{[(1S)-1-methylbutyl]oxy}-9-[5-(4-methyl-1-piperazinyl)pentyl]-7,9-dihydro-8H-purin-8-one] gave an EC50 of less than 3.16 µM.

CCCCOc1nc(N)c2[nH]c(=O)n(CCCN3CCN(CCCC)CC3)c2n1 [Example 10, 6-Amino-2-(butyloxy)-9-[3-(4-butyl-1-piperazinyl)propyl]-7,9-dihydro-8H-purin-8-one] gave an EC50 of less than 3.16 µM.

CCCCOc1nc(N)c2[nH]c(=O)n(CCCCCN3CCN(CC4CCCC4)CC3)c2n1 [Example 66, 6-Amino-2-(butyloxy)-9-{5-[4-(cyclopentylmethyl)-1-piperazinyl]pentyl}-7,9-dihydro-8H-purin-8-one] gave an EC50 of less than 3.16 µM.

Compound CC(C)N1CCN(CCCCn2c(=O)[nH]c3c(N)nc(OC4CCC4)nc32)CC1 [Example 71, 6-Amino-2-(cyclobutyloxy)-9-{4-[4-(1-methylethyl)-1-piperazinyl]butyl}-7,9-dihydro-8H-purin-8-one] has an EC50 of less than 3.16 µM.

CCC[C@H](C)Oc1nc(N)c2[nH]c(=O)n(CCCCCN3CCN(C(C)(C)C)CC3)c2n1 [Example 53, 6-Amino-9-{5-[4-(1,1-dimethylethyl)-1-piperazinyl]pentyl}-2-{[(1S)-1-methylbutyl]oxy}-7,9-dihydro-8H-purin-8-one] gave an EC50 of less than 3.16 µM.

CCCCNc1nc(N)c2[nH]c(=O)n(CCCCN3CCN(CCC)CC3)c2n1 [Example 37, 6-Amino-2-(butylamino)-9-[4-(4-propyl-1-piperazinyl)butyl]-7,9-dihydro-8H-purin-8-one] was tested, and the EC50 was less than 3.16 µM.

CCCCNc1nc(N)c2[nH]c(=O)n(CCCN3CCN(C(C)C)CC3)c2n1 [Example 19, 6-Amino-2-(butylamino)-9-{3-[4-(1-methylethyl)-1-piperazinyl]propyl}-7,9-dihydro-8H-purin-8-one] was tested, and the EC50 was less than 3.16 µM.

Work on CCCCOc1nc(N)c2[nH]c(=O)n(CCCN3CCN(C4CCCCC4)CC3)c2n1 [Example 15, 6-Amino-2-(butyloxy)-9-[3-(4-cyclohexyl-1-piperazinyl)propyl]-7,9-dihydro-8H-purin-8-one] yielded an EC50 of less than 3.16 µM.

CCCCNc1nc(N)c2[nH]c(=O)n(CCCCN3CCN(C(C)C)CC3)c2n1 [Example 38, 6-Amino-2-(butylamino)-9-{4-[4-(1-methylethyl)-1-piperazinyl]butyl}-7,9-dihydro-8H-purin-8-one] was tested, and the EC50 was less than 3.16 µM.

CCCCOc1nc(N)c2[nH]c(=O)n(CCCN3CCN(CC)CC3)c2n1 [Example 7, 6-Amino-2-(butyloxy)-9-[3-(4-ethyl-1-piperazinyl)propyl]-7,9-dihydro-8H-purin-8-one] showed an EC50 of less than 3.16 µM.

For CCCCOc1nc(N)c2[nH]c(=O)n(CCCCN3CCN(CC4CC4)CC3)c2n1 [Example 33, 6-Amino-2-(butyloxy)-9-{4-[4-(cyclopropylmethyl)-1-piperazinyl]butyl}-7,9-dihydro-8H-purin-8-one], the EC50 was less than 3.16 µM.

CCC[C@@H](C)Nc1nc(N)c2[nH]c(=O)n(CCCCN3CCN(C(C)C)CC3)c2n1 [Example 74, 6-Amino-2-{[(1R)-1-methylbutyl]amino}-9-{4-[4-(1-methylethyl)-1-piperazinyl]butyl}-7,9-dihydro-8H-purin-8-one] showed an EC50 of less than 3.16 µM.

With CC(C)N1CCN(CCCCn2c(=O)[nH]c3c(N)nc(OC4CCCC4)nc32)CC1 [Example 72, 6-Amino-2-(cyclopentyloxy)-9-{4-[4-(1-methylethyl)-1-piperazinyl]butyl}-7,9-dihydro-8H-purin-8-one] the EC50 was less than 3.16 µM.

With CCCCNc1nc(N)c2[nH]c(=O)n(CCN3CCN(C)CC3)c2n1 [Example 3, 6-Amino-2-(butylamino)-9-[2-(4-methyl-1-piperazinyl)ethyl]-7,9-dihydro-8H-purin-8-one] the EC50 was less than 3.16 µM.

Compound CCCCOc1nc(N)c2[nH]c(=O)n(CCCCCCN3CCN(C)CC3)c2n1 [Example 55, 6-Amino-2-(butyloxy)-9-[6-(4-methyl-1-piperazinyl)hexyl]-7,9-dihydro-8H-purin-8-one] has an EC50 of less than 3.16 µM.

Compound CCCCNc1nc(N)c2[nH]c(=O)n(CCCN3CCN(CCCC)CC3)c2n1 [Example 20, 6-Amino-2-(butylamino)-9-[3-(4-butyl-1-piperazinyl)propyl]-7,9-dihydro-8H-purin-8-one] has an EC50 of less than 3.16 µM.
